According to patent US10695589B1, “Method and kit for home controlled ovarian stimulation for in vitro fertilization” (priority 2019, dated 2020):
Square brackets hold non-standard residues; d marks the D form. Peptide text beside a SMILES is read from it. d(hArg(Et2)) = CCN=C(NCC)NCCCC[C@@H](N)C(=O)O; hArg(Et2) = CCN=C(NCC)NCCCC[C@H](N)C(=O)O; dPhe(4-Cl) = N[C@H](Cc1ccc(Cl)cc1)C(=O)O; d2Nal = N[C@H](Cc1ccc2ccccc2c1)C(=O)O; d3Pal = N[C@H](Cc1cccnc1)C(=O)O

What was measured:
[1] = system: Luteinizing hormone (LH) blood level; assay: LH blood hormone level in patients on conventional GnRH antagonist protocol with Ganirelex/Cetrotide injectables (Example 1); format: in vivo, female patients
Protocol: Five female patients were treated with a GnRH antagonist protocol requiring injections of medications.
One patient, patient no. 1, was injected with 150 Units of FSH on days 3 to 12; half a syringe of 150 mcg/0.5 mL of ganirelix acetate on days 11 and 12; and 50 mg of clomiphene citrate on days 3 to 12; and 2.5 mg of letrozole on days 3 to 7. Luteinizing hormone (LH) blood level was 4.3 mIU/mL on day 10 and dropped to 2 mIU/mL on day 12.
A second patient, patient no. 2, was injected with 75 Units of FSH on days 4 to 12 and 150 Units on day 13; half a syringe of 150 mcg/0.5 mL of ganirelix acetate on days 11 to 13; 50 mg of clomiphene citrate on days 10 to 12, and 2.5 mg of letrozole on days 3 to 7. Luteinizing hormone (LH) blood level was 12.0 mIU/mL on day 11 and dropped to 6.3 mIU/mL on day 13.
Three patients, numbered 3 to 5, were injected with 75, 150 and 225 Units of FSH, respectively, on days 4 to 12 and one third a syringe of 150 mcg/0.5 mL of ganirelix acetate on days 11 to 13. Patient no. 3 received 50 mg of clomiphene citrate on days 4 to 12, and 2.5 mg of letrozole on days 4 to 8. Patient no. 4 received 100 mg of clomiphene citrate and 2.5 mg of letrozole on days 4 to 8, and 50 mg of clomiphene citrate on days 9 to 11. Patient no. 5 received no clomiphene citrate or letrozole. Luteinizing hormone (LH) blood level was 12.0, 18.0 and 14.6 mIU/mL, respectively, on day 10 and dropped to 4.9, 16.0 and 14.1 mIU/mL, respectively, on day 12.
(§1) Table 2 below provides a comparison of the efficacy of conventional Ganirelex/Cetrotide injectables treatment for IVF in the five representative patients from Example 1 with the home controlled ovarian hyperstimulation method described herein in the five representative patients from Example 2.

[2] = system: Luteinizing hormone (LH) blood level; assay: LH blood hormone level in patients on home controlled ovarian hyperstimulation method with vaginal elagolix (Example 2); format: in vivo, female patients
Protocol: On day 9 of the menstrual cycle, the patient is directed to orally take 50 to 150 mg, preferably 100 mg, (one, two, or three 50 mg oral tablets) of clomiphene citrate and to either insert vaginally or take orally, depending on the patient's preference, a gonadotropin-releasing hormone (GnRH) antagonist such as elagolix (marketed as ORILISSA®), instead of the expensive injections of ganirelix acetate (GANIRELEX®) or cetrorelix acetate (marketed as CETROTIDE®) used routinely in conventional practices. A dose of 25 mg (⅛^th of a pill) up to 200 mg of elagolix (1 full pill), preferably 25 mg, will be used, with the dose being the same whether inserted vaginally or taken orally. Elagolix is a GnRH antagonist that is conventionally used in the treatment of pain associated with endometriosis in women, not for the treatment of infertility. By blocking the GnRH receptor, elagolix suppresses LH release by the pituitary gland and thus prevents LH surge. Ultimately, elagolix suppresses gonadal steroid production, thereby reducing circulating levels of sex hormones such as progesterone, estradiol, and testosterone. Elagolix is generally an oral medication (oral tablet), however in the present method, elagolix is a tablet taken mainly as a vaginal suppository, but may be taken orally based on the patient's preference. Additionally, the lowest and most preferred dose of elagolix (25 mg) that is used is one-eighth of the daily dosage conventionally administered for the treatment of endometriosis (e.g., 200 mg to 400 mg daily). […] Alternative GnRH receptor antagonists that can be used instead of elagolix include linzagolix and relugolix.
Five female patients were treated with the controlled ovarian hyperstimulation method described herein using the elagolix pill (vaginal route) instead of the conventional Ganirelex/Cetrotide injectables. On day 3 of the patient's menstrual cycle, the patient orally took 100 mg (two 50 mg oral tablets) of clomiphene citrate and 5 mg (two 2.5 mg oral tablets) of letrozole. The patient then took the same oral dosages of clomiphene citrate and letrozole daily on each of days 4-7 of the patient's menstrual cycle. On day 8 of the patient's menstrual cycle, the patient orally took only 100 mg (two 50 mg oral tablets) of clomiphene citrate, and stopped the letrozole. On day 9 of the menstrual cycle, the patient orally took 100 mg (two 50 mg oral tablets) of clomiphene citrate and inserted vaginally a 50 mg tablet of elagolix as a vaginal suppository. On day 10 of the menstrual cycle, the patient orally took only 100 mg (two 50 mg oral tablets) of clomiphene citrate. On day 11 of the menstrual cycle, the patient orally took 100 mg (two 50 mg oral tablets) of clomiphene citrate and inserted vaginally a 50 mg tablet of elagolix as a vaginal suppository. Also, on day 11, the patient took a home ovulation test in the morning (9:00 am) and in the evening (9:00 pm). For the patients whose ovulation tests were not positive, then on days 12 and 13, the patient took 2 doses of leuprorelin as a nasal spray (1:40 dilution in saline) as follows. On day 12, after taking a home ovulation test at 9:00 am, 2 puffs (sprays) of the nasal spray were self-administered by the patient per nostril. After 12 hours of waiting, at 9:00 pm the patient took a home urine ovulation test and then self-administered 2 more puffs (sprays) of the nasal spray per nostril. On day 13, the patient repeated the procedure of day 12. Luteinizing hormone (LH) blood level was 7.0 mIU/mL on day 11 and dropped to 1.0 mIU/mL on day 13.
as §1

[3] = Example 2 patient 4, 50 mg elagolix vaginal suppository on days 9 and 11
[4] = Example 2 patient 5, 50 mg elagolix vaginal suppository on days 9 and 11

For `CCN=C(NCC)NCCCC[C@H](NC(=O)[C@H](CC(C)C)NC(=O)[C@@H](CCCCNC(=NCC)NCC)NC(=O)[C@H](Cc1ccc(O)cc1)NC(=O)[C@H](CO)NC(=O)[C@@H](Cc1cccnc1)NC(=O)[C@@H](Cc1ccc(Cl)cc1)NC(=O)[C@@H](Cc1ccc2ccccc2c1)NC(C)=O)C(=O)N1CCC[C@H]1C(=O)N[C@H](C)C(N)=O` [Ganirelex, ganirelix acetate] (Ac-[d2Nal][dPhe(4-Cl)][d3Pal]SY[d(hArg(Et2))]L[hArg(Et2)]P[dA]-NH2), the “LH blood hormone level BEFORE medication intake” value ([1]; Example 1 patient 1, day 10, half a syringe of 150 mcg/0.5 mL ganirelix acetate on days 11 and 12, FSH 150 Units days 3-12, clomiphene citrate 50 mg days 3-12, letrozole 2.5 mg days 3-7) was 4.3 mIU/mL, the “% Drop in blood LH hormone level” value ([1]; Example 1 patient 1, day 10 to day 12) was 53.5% and the “% Drop in blood LH hormone level” value ([1]; Example 1 patient 1, day 10 to day 12, listed as Conventional Ganielex/Cetrotide Injectables) was 53.5%. The “LH blood hormone level AFTER medication intake” value ([1]; Example 1 patient 1, day 12, half a syringe ganirelix acetate on days 11 and 12) was 2 mIU/mL, the “LH blood hormone level AFTER medication intake” value ([1]; Example 1 patient 1, day 12, half a syringe ganirelix acetate on days 11 and 12, listed as Conventional Ganielex/Cetrotide Injectables) was 2.0 mIU/mL and the “LH blood hormone level BEFORE medication intake” value ([1]; Example 1 patient 2, day 11, half a syringe of 150 mcg/0.5 mL ganirelix acetate on days 11 to 13, FSH 75 Units days 4-12 and 150 Units day 13, clomiphene citrate 50 mg days 10-12, letrozole 2.5 mg days 3-7) was 12.0 mIU/mL. For the same compound, the “% Drop in blood LH hormone level” value ([1]; Example 1 patient 2, day 11 to day 13) was 47.5%, the “% Drop in blood LH hormone level” value ([1]; Example 1 patient 2, day 11 to day 13, listed as Conventional Ganielex/Cetrotide Injectables) was 47.5% and the “LH blood hormone level AFTER medication intake” value ([1]; Example 1 patient 2, day 13, half a syringe ganirelix acetate on days 11 to 13) was 6.3 mIU/mL. For the same compound, the “LH blood hormone level BEFORE medication intake” value ([1]; Example 1 patient 3, day 10, one third a syringe of 150 mcg/0.5 mL ganirelix acetate on days 11 to 13, FSH 75 Units days 4-12, clomiphene citrate 50 mg days 4-12, letrozole 2.5 mg days 4-8) was 12.0 mIU/mL, the “% Drop in blood LH hormone level” value ([1]; Example 1 patient 3, day 10 to day 12) was 59.25% and the “% Drop in blood LH hormone level” value ([1]; Example 1 patient 3, day 10 to day 12, listed as Conventional Ganielex/Cetrotide Injectables) was 59.2%. For the same compound, the “LH blood hormone level AFTER medication intake” value ([1]; Example 1 patient 3, day 12, one third a syringe ganirelix acetate on days 11 to 13) was 4.9 mIU/mL, the “LH blood hormone level BEFORE medication intake” value ([1]; Example 1 patient 4, day 10, one third a syringe of 150 mcg/0.5 mL ganirelix acetate on days 11 to 13, FSH 150 Units days 4-12, clomiphene citrate 100 mg and letrozole 2.5 mg days 4-8, clomiphene citrate 50 mg days 9-11) was 18.0 mIU/mL and the “% Drop in blood LH hormone level” value ([1]; Example 1 patient 4, day 10 to day 12) was 11.1%. The “% Drop in blood LH hormone level” value ([1]; Example 1 patient 4, day 10 to day 12, listed as Conventional Ganielex/Cetrotide Injectables) was 11.1%, the “LH blood hormone level AFTER medication intake” value ([1]; Example 1 patient 4, day 12, one third a syringe ganirelix acetate on days 11 to 13) was 16.0 mIU/mL and the “LH blood hormone level BEFORE medication intake” value ([1]; Example 1 patient 5, day 10, one third a syringe of 150 mcg/0.5 mL ganirelix acetate on days 11 to 13, FSH 225 Units days 4-12, no clomiphene citrate or letrozole) was 14.6 mIU/mL. The “% Drop in blood LH hormone level” value ([1]; Example 1 patient 5, day 10 to day 12) was 3.4%, the “% Drop in blood LH hormone level” value ([1]; Example 1 patient 5, day 10 to day 12, listed as Conventional Ganielex/Cetrotide Injectables) was 3.4% and the “LH blood hormone level AFTER medication intake” value ([1]; Example 1 patient 5, day 12, one third a syringe ganirelix acetate on days 11 to 13) was 14.1 mIU/mL.

In the case of `COc1cccc(-c2c(C)n(Cc3c(F)cccc3C(F)(F)F)c(=O)n(C[C@H](NCCCC(=O)O)c3ccccc3)c2=O)c1F` [elagolix], the “LH blood hormone level BEFORE medication intake” value ([2]; Example 2 patient 1, day 11, 50 mg elagolix tablet as vaginal suppository on days 9 and 11, clomiphene citrate 100 mg days 3-11, letrozole 5 mg days 3-7) is reported as 7.0 mIU/mL, the “LH blood hormone level AFTER medication intake” value ([2]; Example 2 patient 1, day 13, 50 mg elagolix vaginal suppository on days 9 and 11) is reported as 1.0 mIU/mL and the “LH blood hormone level AFTER medication intake” value ([2]; Example 2 patient 2, 50 mg elagolix vaginal suppository on days 9 and 11) is reported as 5.7 mIU/mL. For the same compound, the “LH blood hormone level AFTER medication intake” value ([2]; Example 2 patient 3, 50 mg elagolix vaginal suppository on days 9 and 11) was 3.2 mIU/mL, the “LH blood hormone level AFTER medication intake” value [2, 3] was 1.7 mIU/mL and the “LH blood hormone level BEFORE medication intake” value [2, 3] was 8.2 mIU/mL. For the same compound, the “LH blood hormone level AFTER medication intake” value [2, 4] was 0.8 mIU/mL, the “LH blood hormone level BEFORE medication intake” value [2, 4] was 7 mIU/mL and the “GnRH antagonist effect in the patients” value ([2]; lower dose of elagolix taken as a vaginal suppository instead of orally) was “effective GnRH antagonist”.
